Reference: PMC9090415, “Discovery of small molecule inhibitors of Plasmodium falciparum apicoplast DNA polymerase” (Journal of Enzyme Inhibition and Medicinal Chemistry, 2022)

Molecular target: P. falciparum apicoplast DNA polymerase (Pf-apPOL) (Plasmodium falciparum, UniProt Q8ILY1)
Test: Fluorescence-based high-throughput DNA polymerase assay (molecular beacon), primary screen and dose-response;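 as to % inhibition Apol 40': compound concentration given in µM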
Format: biochemical
Conditions: for DNA Pol: 90 min, 10 µM
In short: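 Single-point screening used 10 µM compound with 20 nM polymerase, 20 nM hairpin substrate and 6 µM dNTPs for 90 min at 25 °C. Confirmatory titrations (2.5–80 µM) followed fluorescence at three times, and IC50 was derived from a fit including a cooperativity term n.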

[1] = 'DNA Pol' of the 186 hits list (primary screen value)

Chain of P. falciparum apicoplast DNA polymerase (Pf-apPOL) (Q8ILY1 entry or part of it): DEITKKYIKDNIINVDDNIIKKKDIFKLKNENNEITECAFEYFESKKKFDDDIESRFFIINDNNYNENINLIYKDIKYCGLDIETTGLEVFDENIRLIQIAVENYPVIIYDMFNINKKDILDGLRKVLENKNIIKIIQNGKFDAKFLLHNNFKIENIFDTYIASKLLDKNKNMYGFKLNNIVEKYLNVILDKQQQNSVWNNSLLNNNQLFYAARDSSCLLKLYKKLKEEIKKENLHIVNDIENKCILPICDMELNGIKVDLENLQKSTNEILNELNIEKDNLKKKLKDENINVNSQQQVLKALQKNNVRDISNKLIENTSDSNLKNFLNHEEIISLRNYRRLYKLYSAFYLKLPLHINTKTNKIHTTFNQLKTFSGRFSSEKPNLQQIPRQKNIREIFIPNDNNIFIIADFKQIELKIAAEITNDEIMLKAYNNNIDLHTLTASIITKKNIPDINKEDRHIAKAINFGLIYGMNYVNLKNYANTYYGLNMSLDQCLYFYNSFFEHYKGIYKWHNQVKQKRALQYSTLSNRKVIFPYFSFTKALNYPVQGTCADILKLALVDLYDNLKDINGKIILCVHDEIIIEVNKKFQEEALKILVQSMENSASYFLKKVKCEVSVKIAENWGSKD

Compound: COc1cccc(Oc2c(C(F)(F)F)oc3cc(OC(=O)N(C)C)ccc3c2=O)c1 [Molecule 52, COc1cccc(c1)Oc1c(=O)c2ccc(cc2oc1C(F)(F)F)OC(=O)N(C)C]
- DNA Pol [1]: 61
- DNA Pol (DNA Pol (primary screen value)): 61
- % inhibition Apo pol 10' (DRC-1, concentration 2.5): 6.553%
- % inhibition Apo pol 10' (DRC-1, concentration 5): 12.9509%
- % inhibition Apo pol 10' (DRC-1, concentration 10): 26.9326%
- % inhibition Apo pol 10' (DRC-1, concentration 20): 35.5271%
- % inhibition Apo pol 10' (DRC-1, concentration 40): 51.7019%
- % inhibition Apo pol 10' (DRC-1, concentration 80): 57.2765%
- % inhibition Apol 90' (DRC-1, concentration 2.5): 11.9844%
- % inhibition Apol 90' (DRC-1, concentration 5): 19.0717%
- % inhibition Apol 90' (DRC-1, concentration 10): 34.8904%
- % inhibition Apol 90' (DRC-1, concentration 20): 41.7615%
- % inhibition Apol 90' (DRC-1, concentration 40): 58.6612%
- % inhibition Apol 90' (DRC-1, concentration 80): 63.3235%
- % inhibition apPOL 180' (DRC-1, concentration 2.5): 22.4742%
- % inhibition apPOL 180' (DRC-1, concentration 5): 28.9407%
- % inhibition apPOL 180' (DRC-1, concentration 10): 43.333%
- % inhibition apPOL 180' (DRC-1, concentration 20): 44.974%
- % inhibition apPOL 180' (DRC-1, concentration 40): 65.9617%
- % inhibition apPOL 180' (DRC-1, concentration 80): 64.6101%
- % inhibition Apo pol 5' (DRC-2, concentration 2.5): 15%
- % inhibition Apo pol 5' (DRC-2, concentration 5): 18%
- % inhibition Apo pol 5' (DRC-2, concentration 10): 27%
- % inhibition Apo pol 5' (DRC-2, concentration 20): 32%
- % inhibition Apo pol 5' (DRC-2, concentration 40): 40%
- % inhibition Apo pol 5' (DRC-2, concentration 80): 42%
- % inhibition Apol 40' (DRC-2, concentration 2.5): 14%
- % inhibition Apol 40' (DRC-2, concentration 5): 14%
- % inhibition Apol 40' (DRC-2, concentration 10): 33%
- % inhibition Apol 40' (DRC-2, concentration 20): 41%
- % inhibition Apol 40' (DRC-2, concentration 40): 50%
- % inhibition Apol 40' (DRC-2, concentration 80): 56%
- % inhibition ApPOL 90' (DRC-2, concentration 2.5): 14%
- % inhibition ApPOL 90' (DRC-2, concentration 5): 8%
- % inhibition ApPOL 90' (DRC-2, concentration 10): 33%
- % inhibition ApPOL 90' (DRC-2, concentration 20): 41%
- % inhibition ApPOL 90' (DRC-2, concentration 40): 51%
- % inhibition ApPOL 90' (DRC-2, concentration 80): 58%
- % inhibition apPOL 180' (DRC-2, concentration 2.5): 6.57%
- % inhibition apPOL 180' (DRC-2, concentration 5): -58%
- % inhibition apPOL 180' (DRC-2, concentration 10): 24%
- % inhibition apPOL 180' (DRC-2, concentration 20): 33%
- % inhibition apPOL 180' (DRC-2, concentration 40): 45%
- % inhibition apPOL 180' (DRC-2, concentration 80): 54%

Compound: Cc1ccc(C)n1-c1ccc(C(=O)NNC(=O)c2ccc3nccnc3c2)cc1 [Molecule 53, O=C(c1ccc(cc1)n1c(C)ccc1C)NNC(=O)c1ccc2c(c1)nccn2]
- DNA Pol ("DNA Pol" of the 186 hits list (screen value)): 84
- % inhibition Apo pol 10' (DRC-1, concentration 2.5): 0.1394%
- % inhibition Apo pol 10' (DRC-1, concentration 5): 8.124%
- % inhibition Apo pol 10' (DRC-1, concentration 10): 19.7971%
- % inhibition Apo pol 10' (DRC-1, concentration 20): 46.3145%
- % inhibition Apo pol 10' (DRC-1, concentration 40): 80.1476%
- % inhibition Apo pol 10' (DRC-1, concentration 80): 83.7947%
- % inhibition Apol 90' (DRC-1, concentration 2.5): -3.841%
- % inhibition Apol 90' (DRC-1, concentration 5): -1.933%
- % inhibition Apol 90' (DRC-1, concentration 10): 7.019%
- % inhibition Apol 90' (DRC-1, concentration 20): 31.5983%
- % inhibition Apol 90' (DRC-1, concentration 40): 69.8424%
- % inhibition Apol 90' (DRC-1, concentration 80): 79.5478%
- % inhibition apPOL 180' (DRC-1, concentration 2.5): -5.424%
- % inhibition apPOL 180' (DRC-1, concentration 5): -7.03%
- % inhibition apPOL 180' (DRC-1, concentration 10): 0.2997%
- % inhibition apPOL 180' (DRC-1, concentration 20): 17.1559%
- % inhibition apPOL 180' (DRC-1, concentration 40): 57.2023%
- % inhibition apPOL 180' (DRC-1, concentration 80): 72.0846%
- % inhibition Apo pol 5' (DRC-2, concentration 2.5): 0%
- % inhibition Apo pol 5' (DRC-2, concentration 5): 1.67%
- % inhibition Apo pol 5' (DRC-2, concentration 10): 25%
- % inhibition Apo pol 5' (DRC-2, concentration 20): 46%
- % inhibition Apo pol 5' (DRC-2, concentration 40): 55%
- % inhibition Apo pol 5' (DRC-2, concentration 80): 57%
- % inhibition Apol 40' (DRC-2, concentration 2.5): 3.18%
- % inhibition Apol 40' (DRC-2, concentration 5): 2%
- % inhibition Apol 40' (DRC-2, concentration 10): 23%
- % inhibition Apol 40' (DRC-2, concentration 20): 50%
- % inhibition Apol 40' (DRC-2, concentration 40): 64%
- % inhibition Apol 40' (DRC-2, concentration 80): 72%
- % inhibition ApPOL 90' (DRC-2, concentration 2.5): 0.241%
- % inhibition ApPOL 90' (DRC-2, concentration 5): 1.15%
- % inhibition ApPOL 90' (DRC-2, concentration 10): 18%
- % inhibition ApPOL 90' (DRC-2, concentration 20): 47%
- % inhibition ApPOL 90' (DRC-2, concentration 40): 64%
- % inhibition ApPOL 90' (DRC-2, concentration 80): 74%
- % inhibition apPOL 180' (DRC-2, concentration 2.5): -1.53%
- % inhibition apPOL 180' (DRC-2, concentration 5): -2.77%
- % inhibition apPOL 180' (DRC-2, concentration 10): 10%
- % inhibition apPOL 180' (DRC-2, concentration 20): 37%
- % inhibition apPOL 180' (DRC-2, concentration 40): 56%
- % inhibition apPOL 180' (DRC-2, concentration 80): 73%
- DNA Pol (primary screen value, DNA Pol): 84

Compound: Cc1ccc(-n2nnc(C(=O)O)c2-c2ccccn2)c(F)c1 [Molecule 54, Cc1ccc(c(c1)F)n1nnc(c1c1ccccn1)C(=O)O]
- DNA Pol [1]: 25
- DNA Pol (DNA Pol (primary screen value)): 25
- % inhibition Apo pol 10' (DRC-1, concentration 2.5): 7.865%
- % inhibition Apo pol 10' (DRC-1, concentration 5): 13.3823%
- % inhibition Apo pol 10' (DRC-1, concentration 10): 36.76%
- % inhibition Apo pol 10' (DRC-1, concentration 20): 54.7705%
- % inhibition Apo pol 10' (DRC-1, concentration 40): 63.8546%
- % inhibition Apo pol 10' (DRC-1, concentration 80): 49.8653%
- % inhibition Apol 90' (DRC-1, concentration 2.5): 0.06529%
- % inhibition Apol 90' (DRC-1, concentration 5): 1.171%
- % inhibition Apol 90' (DRC-1, concentration 10): 17.5602%
- % inhibition Apol 90' (DRC-1, concentration 20): 37.4412%
- % inhibition Apol 90' (DRC-1, concentration 40): 61.51%
- % inhibition Apol 90' (DRC-1, concentration 80): 66.8702%
- % inhibition apPOL 180' (DRC-1, concentration 2.5): -5.444%
- % inhibition apPOL 180' (DRC-1, concentration 5): -7.146%
- % inhibition apPOL 180' (DRC-1, concentration 10): 5.348%
- % inhibition apPOL 180' (DRC-1, concentration 20): 21.3721%
- % inhibition apPOL 180' (DRC-1, concentration 40): 53.298%
- % inhibition apPOL 180' (DRC-1, concentration 80): 71.3072%
- % inhibition Apo pol 5' (DRC-2, concentration 2.5): 5%
- % inhibition Apo pol 5' (DRC-2, concentration 5): 15%
- % inhibition Apo pol 5' (DRC-2, concentration 10): 31%
- % inhibition Apo pol 5' (DRC-2, concentration 20): 33%
- % inhibition Apo pol 5' (DRC-2, concentration 40): 21%
- % inhibition Apo pol 5' (DRC-2, concentration 80): -14%
- % inhibition Apol 40' (DRC-2, concentration 2.5): 5.55%
- % inhibition Apol 40' (DRC-2, concentration 5): 10%
- % inhibition Apol 40' (DRC-2, concentration 10): 27%
- % inhibition Apol 40' (DRC-2, concentration 20): 42%
- % inhibition Apol 40' (DRC-2, concentration 40): 48%
- % inhibition Apol 40' (DRC-2, concentration 80): 33%
- % inhibition ApPOL 90' (DRC-2, concentration 2.5): 3.47%
- % inhibition ApPOL 90' (DRC-2, concentration 5): 6%
- % inhibition ApPOL 90' (DRC-2, concentration 10): 22%
- % inhibition ApPOL 90' (DRC-2, concentration 20): 39%
- % inhibition ApPOL 90' (DRC-2, concentration 40): 52%
- % inhibition ApPOL 90' (DRC-2, concentration 80): 45%
- % inhibition apPOL 180' (DRC-2, concentration 2.5): 0.3%
- % inhibition apPOL 180' (DRC-2, concentration 5): -1.15%
- % inhibition apPOL 180' (DRC-2, concentration 10): 13%
- % inhibition apPOL 180' (DRC-2, concentration 20): 28%
- % inhibition apPOL 180' (DRC-2, concentration 40): 51%
- % inhibition apPOL 180' (DRC-2, concentration 80): 55%
